Values joined by “and” are separate entries in the source; they are usually repeats but may differ in a detail not shown here. Equal values may be shown once. Read-outs that look alike come from different tables or passages of the source.
Columns and labels:
[1] = target: SARS-CoV-2 nsp10-nsp16 complex (Severe acute respiratory syndrome coronavirus 2, UniProt P0DTD1); experiment: biochemical
[2] = target: HCoV-NL63 nsp10-nsp16 complex (Human coronavirus NL63, UniProt P0C6X5); experiment: biochemical; type: biochemical
Chain of HCoV-NL63 nsp10-nsp16 complex (P0C6X5 6430-6729 limits assumed): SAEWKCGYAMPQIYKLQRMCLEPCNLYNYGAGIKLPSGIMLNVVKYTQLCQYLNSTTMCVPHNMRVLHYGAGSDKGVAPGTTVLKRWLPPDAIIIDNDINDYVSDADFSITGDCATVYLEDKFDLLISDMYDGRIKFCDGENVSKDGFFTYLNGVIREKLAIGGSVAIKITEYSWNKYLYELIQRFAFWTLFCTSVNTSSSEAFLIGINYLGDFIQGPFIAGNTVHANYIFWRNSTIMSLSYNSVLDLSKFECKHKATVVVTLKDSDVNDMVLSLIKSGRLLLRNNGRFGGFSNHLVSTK
Chain of HCoV-NL63 nsp10-nsp16 complex (P0C6X5 3909-4043 partner limits assumed): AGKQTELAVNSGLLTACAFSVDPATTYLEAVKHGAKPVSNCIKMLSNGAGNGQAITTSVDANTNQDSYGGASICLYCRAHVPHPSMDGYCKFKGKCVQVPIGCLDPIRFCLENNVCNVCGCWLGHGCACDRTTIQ

[3] = target: HCoV-229E nsp10-nsp16 complex (Human coronavirus 229E, UniProt P0C6X1); experiment: biochemical
Chain of HCoV-229E nsp10-nsp16 complex (P0C6X1 6459-6758 limits assumed): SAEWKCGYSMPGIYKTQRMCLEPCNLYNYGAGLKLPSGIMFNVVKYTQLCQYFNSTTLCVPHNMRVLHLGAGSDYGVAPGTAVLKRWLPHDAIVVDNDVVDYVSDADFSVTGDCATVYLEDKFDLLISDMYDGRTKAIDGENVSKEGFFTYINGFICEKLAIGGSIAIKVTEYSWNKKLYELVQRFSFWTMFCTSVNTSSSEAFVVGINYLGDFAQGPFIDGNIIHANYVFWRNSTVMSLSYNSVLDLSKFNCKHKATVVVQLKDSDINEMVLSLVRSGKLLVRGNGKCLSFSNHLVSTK
Chain of HCoV-229E nsp10-nsp16 complex (P0C6X1 3934-4068 partner limits assumed): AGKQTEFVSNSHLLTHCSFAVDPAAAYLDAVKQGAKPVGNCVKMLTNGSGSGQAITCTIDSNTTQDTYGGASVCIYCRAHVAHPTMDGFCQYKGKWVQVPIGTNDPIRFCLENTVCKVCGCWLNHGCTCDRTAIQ

[4] = target: HCoV-OC43 nsp10-nsp16 complex (Human coronavirus OC43, UniProt P0C6X6); experiment: biochemical
Chain of HCoV-OC43 nsp10-nsp16 complex (P0C6X6 6797-7095 limits assumed): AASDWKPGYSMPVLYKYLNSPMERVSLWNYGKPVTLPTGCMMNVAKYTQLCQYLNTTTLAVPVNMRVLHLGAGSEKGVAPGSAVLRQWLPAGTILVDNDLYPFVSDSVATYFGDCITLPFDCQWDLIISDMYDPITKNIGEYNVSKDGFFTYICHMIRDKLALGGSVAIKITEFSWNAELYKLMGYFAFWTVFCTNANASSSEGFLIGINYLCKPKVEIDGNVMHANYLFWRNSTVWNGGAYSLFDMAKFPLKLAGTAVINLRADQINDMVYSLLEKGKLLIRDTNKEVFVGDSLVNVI
Chain of HCoV-OC43 nsp10-nsp16 complex (P0C6X6 4233-4369 partner limits assumed): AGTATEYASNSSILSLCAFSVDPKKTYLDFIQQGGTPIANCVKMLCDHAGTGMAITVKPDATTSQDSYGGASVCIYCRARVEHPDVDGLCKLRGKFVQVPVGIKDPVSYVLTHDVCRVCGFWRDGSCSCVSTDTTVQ

[5] = target: HCoV-HKU1 nsp10-nsp16 complex (Human coronavirus HKU1, UniProt P0C6X3); experiment: biochemical
Chain of HCoV-HKU1 nsp10-nsp16 complex (P0C6X3 6854-7152 limits assumed): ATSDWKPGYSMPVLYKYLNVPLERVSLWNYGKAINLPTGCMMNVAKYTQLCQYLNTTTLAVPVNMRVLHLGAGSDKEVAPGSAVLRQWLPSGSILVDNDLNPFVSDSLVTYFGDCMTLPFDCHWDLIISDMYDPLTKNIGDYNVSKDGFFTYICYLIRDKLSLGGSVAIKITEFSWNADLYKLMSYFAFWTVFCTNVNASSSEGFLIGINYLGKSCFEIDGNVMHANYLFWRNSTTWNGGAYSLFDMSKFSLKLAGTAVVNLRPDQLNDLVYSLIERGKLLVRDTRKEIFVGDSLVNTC
Chain of HCoV-HKU1 nsp10-nsp16 complex (P0C6X3 4291-4427 partner limits assumed): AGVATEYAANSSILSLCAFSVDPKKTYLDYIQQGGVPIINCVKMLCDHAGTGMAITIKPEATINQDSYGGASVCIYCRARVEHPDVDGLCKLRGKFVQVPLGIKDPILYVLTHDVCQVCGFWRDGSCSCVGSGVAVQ

[6] = test system: C[S+](CC[C@H](N)C(=O)[O-])C[C@H]1O[C@@H](n2cnc3c(N)ncnc32)[C@H](O)[C@@H]1O; experiment: purified protein, by the assay type; details: pH 7.5; 23.0 °C

Nc1ncnc2c1ncn2[C@@H]1O[C@H](CSCC[C@H](N)C(=O)O)[C@@H](O)[C@H]1O [SAH, S-adenosylhomocysteine]
IC50 [1]: 2.9 µM and 0.5 µM | fold lower IC50 with N7mGpppAUUAAA versus N7mGpppACCCCC ([2]; HCoV-NL63): 30 fold | IC50 ([2]; IC50, HCoV-NL63, substrate RNA N7mGpppACCCCC 0.3 μM, 2 μM 3H-SAM): 2.4 ± 0.4 µM | IC50 [3]: 0.9 ± 0.2 µM | IC50 [4]: 1.4 ± 0.3 µM | IC50 ([4]; IC50, HCoV-OC43, substrate RNA N7mGpppACCCCC 0.3 μM, 2 μM 3H-SAM): 4.4 ± 1.2 µM | IC50 [5]: 0.2 ± 0.05 µM | IC50 ([5]; IC50, HCoV-HKU1, substrate RNA N7mGpppACCCCC 0.3 μM, 2 μM 3H-SAM): 2.1 ± 0.1 µM

HCoV-229E nsp10-nsp16 complex (Human coronavirus 229E)
Km [6]: 1.8 ± 0.2 µM

HCoV-HKU1 nsp10-nsp16 complex (Human coronavirus HKU1 (isolate N2))
Km [6]: 4.8 ± 1.2 µM and 2.3 ± 0.03 µM

HCoV-OC43 nsp10-nsp16 complex (Human coronavirus OC43)
Km [6]: 7.1 ± 0.8 µM and 2.9 ± 0.4 µM

SARS-CoV nsp10-nsp16 complex (Severe acute respiratory syndrome-related coronavirus)
Km [6]: 5.7 ± 1.1 µM and 2.6 ± 0.4 µM

SARS-CoV-2 nsp10-nsp16 complex (Severe acute respiratory syndrome coronavirus 2)
Km [6]: 5.0 ± 0.7 µM and 2.8 ± 0.4 µM

Source: PMC9908617 (Biochimica et Biophysica Acta. General Subjects, 2023)
